# Results published in patent publication US20260115213A1 (priority 2021, published 2026).
# Columns and labels:
# [1] = target: T1, eIF4A1(19-406)-(AG)5-AMPPNP complex (purified recombinant human eIF4A) (Homo sapiens, UniProt P60842); experiment: Thermal shift assay, melting temperature of eIF4A1(19-406)-(AG)5-AMPPNP-rocaglate complexes; format: binding; details: 5 μM eIF4A, 50 μM (AG)5 RNA, 1 mM AMP-PNP, 100 μM compound; DMSO negative control Tm=48.80
# T1 construct: eIF4A1(19-406)=amino acid residues 19-406 of eIF4A1; made in house
# T1 sequence (P60842 19-406, one chain of several): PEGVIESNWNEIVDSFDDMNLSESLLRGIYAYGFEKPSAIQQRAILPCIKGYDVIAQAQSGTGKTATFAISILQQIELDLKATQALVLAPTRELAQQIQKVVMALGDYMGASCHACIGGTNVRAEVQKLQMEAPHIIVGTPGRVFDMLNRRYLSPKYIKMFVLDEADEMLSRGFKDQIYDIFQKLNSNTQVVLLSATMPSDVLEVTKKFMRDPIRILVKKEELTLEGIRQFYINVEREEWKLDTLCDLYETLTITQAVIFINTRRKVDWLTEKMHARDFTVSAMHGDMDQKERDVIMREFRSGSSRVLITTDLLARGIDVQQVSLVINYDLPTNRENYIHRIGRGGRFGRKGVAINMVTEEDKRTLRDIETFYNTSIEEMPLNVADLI
# Method: A thermal shift assay was performed to study the complexing of the synthetic rocaglates with the eIF4A complex. For the thermal shift assay a final protein concentration of 5 μM purified recombinant human eIF4A (purification according to Iwasaki, et al., 2019) was used. In a reaction volume of 20 μL a 10-fold excess of polypurine RNA ((AG)5) (biomers) (final concentration: 50 μM), 1 mM of the ATP analogue AMP-PNP (ROCHE™), 100 μM of the synthetic rocaglate compounds or DMSO as well as 0.3 μL SYPRO® Orange Protein Gel Stain (SIGMA-ALDRICH™) were mixed with the protein. The measurement was performed in a MICROAMP® Fast 96-Well Reaction Plate (0.1 mL, APPLIED BIOSYSTEMS™) using the QUANTSTUDIO3™ Real-Time PCR System (APPLIED BIOSYSTEMS™). The melt curve starting temperature was set to 10° C. in increments of 0.05° C./s ending at 95° C. After measurement, the data was analyzed using the PROTEIN THERMAL SHIFT™ Software (APPLIED BIOSYSTEMS™).
# [2] = test system: 5′-UTR of (AG)15; details: HepG2 cells, 5, 10, 50 and 100 nM, 48 h, normalized to Renilla and DMSO control
# [3] = test system: RNA viruses representing different virus families (EBOV, CoV, ZIKV, CHIKV, HEV); details: non-cytotoxic concentrations; cited from earlier work
# [4] = test system: 5′-UTR of beta-globin; details: HepG2 cells, 5, 10, 50 and 100 nM, 48 h, normalized to Renilla and DMSO control
Compound,melting temperature (Tm) of eIF4A1(19-406)-(AG)5-AMPPNP-Rocaglate complex [1],also measured
"COc1cc(OC)c2c(c1)O[C@@]1(c3ccc(O)cc3)[C@H](c3ccccc3)[C@@H](C(N)=O)[C@@H](O)[C@@]21O [Compound 9, (1R,2R,3S,3aR,8bS)-1,8b-dihydroxy-3a-(4-hydroxyphenyl)-6,8-dimethoxy-3-phenyl-2,3-dihydro-1H-cyclopenta[b]benzofuran-2-carboxamide]",55.44,"reporter activity, (AG)15 5′-UTR (eIF4A-dependency) [2]: only reduced reporter activity with polyAG sequences"
"COC(=O)[C@H]1[C@@H](O)[C@@]2(O)c3c(OC)cc(O[C@@H]4O[C@@H]([C@H](O)CO)CO[C@H]4OC)cc3O[C@@]2(c2ccc(OC)cc2)[C@@H]1c1ccccc1 [Silvestrol, methyl (1R,2R,3S,3aR,8bS)-6-[[(2S,3R,6R)-6-[(1R)-1,2-dihydroxyethyl]-3-methoxy-1,4-dioxan-2-yl]oxy]-1,8b-dihydroxy-8-methoxy-3a-(4-methoxyphenyl)-3-phenyl-2,3-dihydro-1H-cyclopenta[b][1]benzofuran-2-carboxylate]",–,concentration range of broad-spectrum antiviral activity [3]: low nanomolar range
"CONC(=O)[C@@H]1[C@H](O)[C@]2(O)c3c(OC)cc(O)cc3O[C@]2(c2ccc(OC)cc2)[C@H]1c1ccccc1 [Compound 7, (1S,2S,3R,3aS,8bR)-1,6,8b-trihydroxy-N,8-dimethoxy-3a-(4-methoxyphenyl)-3-phenyl-2,3,3a,8b-tetrahydro-1H-cyclopenta[b]benzofuran-2-carboxamide]",49.07,–
"COc1cc(OC)c2c(c1)O[C@]1(c3ccc(O)cc3)[C@@H](c3ccccc3)[C@H](C(N)=O)[C@H](O)[C@]21O [Compound 8, (1S,2S,3R,3aS,8bR)-1,8b-dihydroxy-3a-(4-hydroxyphenyl)-6,8-dimethoxy-3-phenyl-2,3-dihydro-1H-cyclopenta[b]benzofuran-2-carboxamide]",51.07,–
"CONC(=O)[C@H]1[C@@H](O)[C@@]2(O)c3c(OC)cc(O)cc3O[C@@]2(c2ccc(OC)cc2)[C@@H]1c1ccccc1 [Compound 6, (1R,2R,3S,3aR,8bS)-1,6,8b-trihydroxy-N,8-dimethoxy-3a-(4-methoxyphenyl)-3-phenyl-2,3-dihydro-1Hcyclopenta[b]benzofuran-2-carboxamide]",51.29,–
"CONC(=O)[C@H]1[C@@H](O)[C@@]2(O)c3c(OC)cc(OC)cc3O[C@@]2(c2ccc(O)cc2)[C@@H]1c1ccccc1 [Compound 1, (1R,2R,3S,3aR,8bS)-1,8b-dihydroxy-3a-(4-hydroxyphenyl)-N,6,8-trimethoxy-3-phenyl-2,3-dihydro-1Hcyclopenta[b]benzofuran-2-carboxamide]",51.49,"reporter activity, β-globin 5′-UTR (eIF4A-independent effect) [4]: nonspecific effects"
